Earlier results on 1 compound are cited in US20120151612A1, “NON-SURGICAL APPROACH TO PREVENT AND CORRECT CRANIOFACIAL MALFORMATIONS DURING DEVELOPMENT” (UNIVERSITY OF SOUTHERN CALIFORNIA, priority 2010, published 2012).

In this data set the test system is angiotensin-mediated Tgf-β signaling. The following applies: patients of Marfan syndrome; cited from earlier work.

With `CCCCc1nc(Cl)c(CO)n1Cc1ccc(-c2ccccc2-c2nn[nH]n2)cc1` [losartan], the enlarged aorta result is on record as “prevents the enlarged aorta”.
